Reference: patent publication US20160221991A1, “NOVEL TRIAZINE DERIVATIVE” (CARNA BIOSCIENCES, INC., priority 2013, published 2016)

Test system: anti-IgM antibody BCR stimulation-induced intracellular calcium influx in Ramos cells
Experiment: Inhibition test on the change of Ramos intracellular calcium ion
Assay type: cell-based
Conditions: Fluo-8NW fluorescence, anti-IgM 2.0 μg/mL, FIG. 1
Method: The intracellular BTK inhibition by the compounds of the present invention was verified by measuring the effects of the compounds of the present invention on “anti-IgM antibody BCR stimulation-induced intracellular calcium influx”. One day before measurement, the Ramos cells were cultured as being suspended again at a cell density of 1.0×10^6 cells/mL in a fresh growth medium (growth medium as used in Test Example 2), and the cells were recovered next day by centrifugation and washed with RPMI-1640 medium supplemented with 5% penicillin-streptomycin (Nacalai Tesque, Inc.) (Medium 1). […] The Ramos intracellular calcium ion concentration was measured as a fluorescent intensity of the calcium indicator Fluo-8NW using a microplate reader (SynergyH1) (Ex/Em=490/525 nm) After measuring the baseline for 15 seconds, 50 μL of the anti-IgM antibody (Invitrogen, #H15100) diluted with Medium 2 to 10.4 μg/mL was added to each well described above (final concentration of 2.0 μg/mL) to effect BCR stimulation, and then the measurement was continued further for 150 seconds.

Cn1cc(Nc2nc(N)nc(-c3ccnc(-n4ccc5cc(C6CC6)cc(F)c5c4=O)c3CO)n2)cc1C#N [Example 3, 4-({4-Amino-6-[2-(6-cyclopropyl-8-fluoro-1-oxoisoquinolin-2(1H)-yl)-3-(hydroxymethyl)pyridin-4-yl]-1,3,5-triazin-2-yl}amino)-1-methyl-1H-pyrrole-2-carbonitrile]
inhibition of anti-IgM antibody BCR stimulation-induced intracellular calcium ion variation: in a concentration-dependent manner from a low concentration
